≈ marks a conversion by molar mass, not a printed value. Numbered stars: 1 amine (or outer) side, 2 acyl side, 3 side chain; on linkers, the order of the positions; unused ones are H or OH. Bridge positions count the residues as written; N and C are the ends. Square brackets hold non-standard residues; d marks the D form. Peptide text beside a SMILES is read from it. * marks the point of attachment. hTyr(3S-OH,4S-OH,3'-OSO3H) = N[C@H](C(=O)O)[C@H](O)[C@@H](O)c1ccc(O)c(OS(=O)(=O)O)c1; Orn(4R-OH,5R-OH) = O=C([C@H](C[C@@H](O)[C@@H](O)N[*:3])N[*:1])[*:2]; Pro(3S-OH,4S-Me) = C[C@H]1CN[C@H](C(=O)O)[C@H]1O; X1 = CCCCCOc1ccc(-c2cc(-c3ccc(C(=O)*)cc3)no2)cc1; Gln(3R-OH) = NC(=O)C[C@@H](O)[C@H](N)C(=O)O; Hyp = O=C(O)[C@@H]1C[C@@H](O)CN1
Experiments:
[1] = MALDI-MSI drug distribution in infected liver, mouse model of intra-abdominal candidiasis; assay type: in vivo; conditions: single dose 5 mg/kg
Protocol: A mouse model of IAC was used for this study. Female six to eight week old CD1 mice (Charles River Laboratories) weighing 18-22 g were infected intraperitoneally (IP) with 1×10^7 CFU of C. albicans SC5314 mixed with sterile stool matrix as previously described. […] Mice were sacrificed just before antifungal treatment (n=1), and at 1, 3, 6, 24, and 48 hours post-dose (three mice per group per time point). Livers and kidneys were explored for abscesses >1 mm in diameter, dissected, placed on a cryohistology tray, and snap-frozen in liquid nitrogen and stored at −80° C. for tissue sectioning for MALDI imaging.
In a further experiment, a low dose of CD101 at 5 mg/kg was administered and micafungin was given at the same dose. Liver and kidney samples were collected at 6 hours and 24 hours post-dose for both MALDI imaging and absolute drug quantification.
In another separate experiment that aimed at comparing therapeutic level of single dose CD101 and multiple doses of micafungin, a single dose of CD101 at 20 mg/kg was given at day three post-inoculation, and once daily treatment of micafungin at 5 mg/kg starting from day three post-inoculation and a total of three doses of micafungin was administered. Livers and kidneys were collected at 48 hours and 72 hours post first dose of each drug.
Tissues were sectioned at 12 μm thickness using a Leica CM1850 cryostat (Buffalo Grove, Ill.) and mounted onto stainless steel slides (for MALDI-MSI analysis) or frosted glass microscope slides (for H&E staining). Tissue sections were stored at −80° C. until analysis. Prior to MALDI-MSI analysis, tissue sections were thawed and applied with ionization matrix. For CD101, 2,5-dihydroxybenzoic acid (DHB) (20 mg/ml in 50% methanol) containing 267 fmol/μl CD101-D9 (Cidara Therapeutics, Inc) was applied to the surface using a HTX TM sprayer (Chapel Hill, N.C.) operating with 50 μL/min flow rate, 60° C. nozzle temperature and 5 p.s.i. Twenty-five passes over the tissue were performed. For micafungin, 1,5-diaminonaphthalene (1,5-DAN) matrix (5 mg/ml in 50% acetone) containing 5 nmol/μl ^13C6-micafungin (Alsachim, France) was coated onto tissue surface by the TM-sprayer at flow rate of 60 μl/min, 50° C. nozzle temperature and 5 p.s.i. […]
MALDI-MSI analysis was performed using a MALDI LTQ Orbitrap XL mass spectrometer (Thermo Fisher Scientific, Bremen, Germany) with a resolution of 60,000 at m/z 400, full width at half maximum. […] Standards of CD101 and micafungin were analyzed both direct from the stainless steel target plate and spiked into drug-naïve liver tissue to optimize instrument parameters. Limit of detection (LOD) for MALDI-MSI analysis of micafungin and CD101 was 500 ng/g and 1 μg/g of liver or kidney tissue respectively, calculated as described. […]

C. glabrata isolates = assay: Susceptibility profiles of C. glabrata clinical isolates; assay type: cell-based
Excerpt: 168 C. glabrata isolates are collected from blood or other sterile sites in our repository. 11 clinical isolates are selected that display various susceptibility profiles against anidulafungin, caspofungin, and micafungin, and/or harbor mutant or wild-type FKS genes (Table 1). Additionally, 29 isolates are picked that are susceptible to all three echinocandins and harbor wild-type FKS genes. These 40 clinical isolates undergo CD101 susceptibility testing according to the CLSI broth microdilution reference methods. Stock solutions are prepared in DMSO. […] MICs are determined visually after 24-h of incubation. C. krusei ATCC 6258 and C. parapsilosis ATCC 22019 are included for quality controls.

C. albicans = assay: Minimum inhibitory concentration (MIC), IAC study strain; assay type: cell-based; conditions: Candida albicans
Protocol: As used herein, the term “minimum inhibitory concentration” or “MIC” refers to the concentration of an antifungal agent at which 50% to 100% growth inhibition of a fungus is achieved relative to a positive growth control. The method of establishing MIC will vary depending on the specific compound tested. For example, for echinocandins (e.g., CD101), MIC endpoints are determined after 24 hours incubation and correspond with the lowest drug concentration to produce a prominent decrease in turbidity (e.g., an approximately 50% reduction in growth relative to the drug-free growth control). For additional methods of determining the MIC of antifungal agents, see CLSI—Reference method for broth dilution antifungal susceptibility testing of yeasts; Approved-standard—Third Edition. CLSI document M27-A3. Wayne, Pa.: Clinical and Laboratory Standards Institute, 2008.

[2] = tested on: wildtype strains of C. glabrata; conditions: cited from earlier work

CCCCCOc1ccc(-c2cc(-c3ccc(C(=O)N[C@H]4C[C@@H](O)[C@@H](O)NC(=O)[C@@H]5[C@@H](O)[C@@H](C)CN5C(=O)[C@H]([C@H](O)CC(N)=O)NC(=O)[C@H]([C@H](O)[C@@H](O)c5ccc(O)c(OS(=O)(=O)O)c5)NC(=O)[C@@H]5C[C@@H](O)CN5C(=O)[C@H]([C@@H](C)O)NC4=O)cc3)no2)cc1 [micafungin] (X1-[Orn(4R-OH,5R-OH)]T[Hyp][hTyr(3S-OH,4S-OH,3'-OSO3H)][Gln(3R-OH)][Pro(3S-OH,4S-Me)]; lactam 1-C)
time of peak drug intensity in liver tissues (MALDI-MSI) [1]: 1 h | drug signal in liver at 48 hours (MALDI-MSI) ([1]; no further dosing): no drug signals were detected | drug exposure within necrotic center of lesion (MALDI-MSI) ([1]; 24 hours): no detectable drug exposure | time at which drug signal first detectable in lesions (at lesion edge, MALDI-MSI) ([1]; liver): 6 h | susceptibility profile, value (C. glabrata isolates; Isolate 1, FKS R653I): 0.015 | susceptibility profile, value (C. glabrata isolates; Isolate 2, FKS Wild-type): 0.03 | susceptibility profile, value (C. glabrata isolates; Isolate 3, FKS F659L): 0.06 | susceptibility profile, value (C. glabrata isolates; Isolate 4, FKS F659S): 0.06 | susceptibility profile, value (C. glabrata isolates; Isolate 5, FKS R636S): 0.12 | susceptibility profile, value (C. glabrata isolates; Isolate 6, FKS F659del): 4 | susceptibility profile, value (C. glabrata isolates; Isolate 7, FKS S663P): 8 | susceptibility profile, value (C. glabrata isolates; Isolate 8, FKS S663P): 0.5 | susceptibility profile, value (C. glabrata isolates; Isolate 9, FKS D632Y): 0.25 | susceptibility profile, value (C. glabrata isolates; Isolate 10, FKS D632Y): 0.25 | susceptibility profile, value (C. glabrata isolates; Isolate 11, FKS F659del): 4 | MIC (C. albicans): 0.03 µg/mL (≈ 0.0236 µM) | mutant prevention concentration (MPC) [2]: 16 µg/mL

— patent publication US20200164023A1, “METHODS FOR PREVENTING AND TREATING INTRA-ABDOMINAL CANDIDIASIS” (Cidara Therapeutics, Inc., priority 2017, published 2020)
